Laboratory results as given in US10456465B2, “Compositions, kits, and methods for the diagnosis prognosis, monitoring, treatment and modulation of post-transplant lymphoproliferative disorders and hypoxia associated angiogenesis disorders using galectin-1” (Dana-Farber Cancer Institute, Inc., priority 2009, dated 2019).
Entries after “also recorded” stand apart in the source; their conditions may differ.

What was measured:
[1] = test system: EBV-specific CD8+ T cells; assay: rGal1-induced killing of EBV-specific CTLs; format: cell-based, human; details: rGal1 alone, 1.25, 2.5 or 5 μM; 4 h; 7AAD
Description: (§1) After informed consent, 40-60 ml of peripheral blood from healthy donors was used to generate both EBV-transformed LCLs and EBV-specific CTLs (Straathof et al. (2005) Blood 105:1898-904). In brief, 5×10^6 peripheral blood mononuclear cells (PBMCs) were incubated with concentrated culture supernatant from the marmoset B-lymphoblastoid cell line, B95-8, in the presence of 1 μg/ml cyclosporin A (Sandoz, Vienna, Austria) to establish a LCL. Subsequently, PBMCs (2×10^6 per well of a 24-well plate) were stimulated with irradiated LCLs (at 4,000 rads) at an effector-stimulator (E/S) ratio of 40:1. After 10 days, viable cells were restimulated with irradiated LCLs (at 4:1 E/S ratio). CTLs were expanded by weekly stimulations with autologous irradiated LCLs (at 4:1 E/S ratio) in the presence of recombinant human interleukin-2 (rhIL-2, Proleukin; Chiron Emeryville, Calif.) at concentration of 40 U/ml. After 5 cycles of stimulation, CTLs were tested for EBV specificity and cryopreserved. […]
(§2) CTLs were thawed in AIM-V media (Invitrogen) containing 10 U/ml of DNAse I (Roche Applied Science, Indianapolis, Ind.) and rested in culture overnight. […] After 4 hours, the viability of EBV-specific CD8^+ T cells was measured using 7AAD and APC-Cy7-labelled CD8 (BD Biosciences, San Jose, Calif.).

HUVEC = HUVEC invasion (BioCoat Angiogenesis system); format: cell-based, human; details: HUVEC treated with Gal1
Description: HUVEC transfected or not with specific siRNA or pre-incubated with signaling pathway inhibitors were exposed to VEGF or Gal1 with or without lactose, sucrose, 8F4F8G7 mAb or control isotype (IgG1κ) or specific antibodies for VEGFR1 (AP-MAB0702; Abcam), VEGFR2 (AF357; R&D), VEGFR3 (AB89501; Abcam) or VEGF (MAB293; R&D). Cells were processed for proliferation, migration, invasion and tube formation assays. Tumor-associated blood vessels were identified by flow cytometry using Alexa Fluor 647-conjugated anti-CD34 antibody (RAM34; eBioscience).
Invasion assays were performed using the BioCoat Angiogenesis system (BD Biosciences) following manufacturer's recommendations. For assessment of in vivo angiogenesis, growth factor-reduced Matrigel (BD Biosciences) was mixed with Gal1 (0.1 or 3 μM) with or without lactose (30 mM). In another set of experiments, serum-free CM from KS cells infected or not with a retroviral vector expressing Gal1 shRNA and cultured under hypoxic or normoxic conditions, were added to unpolymerized Matrigel and injected subcutaneously into the flanks of either wild-type or Lgals1^−/− (B6) mice or nude mice using a cold syringe. Matrigel embedded with buffer alone was used as negative control and a cocktail containing VEGF (50 ng/ml), heparin (50 U/ml) and TNF (2 ng/ml) was used as positive control. […]

endogenous Gal1 = target: T1, endogenous Gal1 (Homo sapiens, UniProt P09382); assay: Reactivity with endogenous Gal1 from Hodgkin lymphoma cell line (immunoblot); format: binding; details: Hodgkin lymphoma cell line (L428); immunoblots
T1 construct: endogenous Gal1 from HL cell lines; endogenous in cells; host or cells: Hodgkin lymphoma cell line (L428)
Text: Anti-human Gal1 mAbs were obtained by immunizing B6-Cg-Tg (BCL2)22Wehi-J mice (Jackson Labs, Bar Harbor, Me.) with recombinant human glutathione-s-transferase (GST)-Gal1, generating anti-Gal1 hybridomas with standard methods and purifying the Gal1 monoclonal antibody and class-matched IgG2bλ, control by affinity chromatography. […] A previously described anti-Gal1 polyclonal antibody (Juszczynski et al. (2007) Proc Natl Acad Sci USA 104:13134-9) was used as a positive control in all assays.
Expression of Gal1 protein in HL, LCL and DLBCL cell lines was determined by Western blot (WB) using the αGal1 monoclonal antibody (8F4F8G7) or the previously described polyclonal antiserum (Juszczynski et al. (2007) Proc Natl Acad Sci USA 104:13134-9). Knock-down of LMP2A was confirmed by WB using anαLMP2a antibody (Abcam, Cambridge, Mass.). Activity of the AP-1 components, cJun and JunB, in the HL cell line L428 and the LCLs RIC and NOR were interrogated by WB using αphospho(Ser63)-cJun (Cell Signaling Technology), αcJun (Cell Signaling Technology, Danvers, Mass.), αphospho(Ser259)-JunB (Santa Cruz Biotechnology, Inc. Santa Cruz, Calif.) and αJunB (Cell Signaling Technology). WBs were normalized using αβ-actin antibody (Sigma Aldrich, St. Louis, Mo.) to determine β-actin expression as a loading control.

rGal1 = rGal1 (Homo sapiens, UniProt P09382); assay: Anti-Gal1 mAb neutralization of rGal1-induced killing of EBV-specific CTLs; format: cell-based; details: rGal1 1.25, 2.5 or 5 μM pre-incubated with mAb; 4 h; 7AAD
Description: as §1, §2

rGal1, sequence (P09382 whole entry): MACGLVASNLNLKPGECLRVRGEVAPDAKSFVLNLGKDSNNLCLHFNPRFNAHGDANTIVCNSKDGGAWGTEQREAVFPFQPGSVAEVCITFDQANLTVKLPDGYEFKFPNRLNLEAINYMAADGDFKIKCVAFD
T1 sequence (P09382 whole entry): as above

Row | Molecule | apoptosis of EBV-specific CD8+ T cells [1] | EC invasion (HUVEC) | reactivity with endogenous Gal1 (endogenous Gal1) | rGal1-mediated apoptosis of EBV-specific CD8+ T cells (rGal1)
1 | rGal1: recombinant human galectin-1 | induced massive apoptosis | elicited |  | 
2 | anti-Gal1 monoclonal antibody 8F4F8G7 (antibody, V domains shown, Murine hybridoma mAb (deposit PTA-10535), lambda light chain; also called 14-19 8F4-F8-G7; clone 8F4.8F.67) VH: EVQLQQSVAEFVRPGASVRLSCTASGFNIKNTYIHWVRQRPEQGLEWIGKIDPANGNTKYVPEFQGKATMTADTSSNTVYLHLSSLTSEDTAIYYCVDGYYGWYFAVWGTGTTVTVSS VL: QAVVTQESALTTSPGETVTLTCRSSTGAVTTSNYANWVQEKPDHLFTGLIGATNNRAPGVPARFSGSLIGDKAVLTITGAQTEDEAIYFCALWYRNHFIFGSGTKVTVL |  |  | specifically detected | almost completely abrogated; also recorded: dramatically reduced
